Source: patent EP4653437A2 (Innovo Therapeutics Inc., priority 2023, dated 2024)

How the values were obtained:
human 15-PGDH = target: T1, human 15-PGDH (Homo sapiens, UniProt P15428); test: Evaluation of 15-PGDH inhibitory activity (fluorescence enzyme assay, NAD+/PGE2); assay type: biochemical; settings: human 15-PGDH enzyme, fluorescence Vmax
T1 construct: purchased R&D System 5660-DH
T1 sequence (P15428 1-266): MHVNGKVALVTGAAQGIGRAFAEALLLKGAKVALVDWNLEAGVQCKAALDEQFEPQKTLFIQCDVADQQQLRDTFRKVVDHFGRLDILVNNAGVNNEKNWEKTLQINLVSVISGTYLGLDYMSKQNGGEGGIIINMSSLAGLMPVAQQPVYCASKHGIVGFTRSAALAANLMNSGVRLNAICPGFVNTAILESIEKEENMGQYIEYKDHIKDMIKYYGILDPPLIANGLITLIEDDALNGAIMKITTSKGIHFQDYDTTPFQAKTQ
Method: 15-PGDH inhibition activity of Example compounds was measured as follows. 6.7 ng of human 15-PGDH (R&D System# 5660-DH) enzyme (10 µL) was added to a black 96 well plate, 60 µL of buffer (50 mM Tris-HCl, pH 7.5, 0.01% Tween 20) was added, and 10 µL of 200 µM β-Nicotinamide adenine dinucleotide sodium salt (Sigma, Cat# N0632-5G) was added. 10 µL of (10x) compound solution in DMSO was added and reacted for 10 minutes at room temperature.

A549 cells = test: Measurement of PGE2-increasing activity in A549 cells (IL-1β stimulated, PGE2 quantified in supernatant); assay type: cell-based; settings: for fold induction at 1 µM: Homo sapiens, 24 h, concentration of 1 µM of each compound, IL-1β treated A549 cells, read-out: Increased PGE2 production in A549 cells
Procedure, shortened: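 PGE2 secreted into the supernatant was measured by immunoassay 24 h after treatment. Before treatment, A549 cells were cultured 24 h in 10% FBS F12K, washed, and placed in serum-free medium containing compound (DMSO 0.1% final) plus or minus IL-1β, incubated at 37 °C, 5% CO2.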

O=C(c1cnn2c(-c3ccccc3)cccc12)N1CC2CCC1CC2 [Example 228, (2-azabicyclo[2.2.2]octan-2-yl)(7-phenylpyrazolo[1,5-a]pyridin-3-yl)methanone] showed an IC50 (human 15-PGDH) of at most 100 nM and a fold induction at 1 µM (A549 cells) of under 1.5.
O=C(c1cnn2c(-c3cnc(N4CCOC4=O)c(F)c3)cccc12)N1CCCCC1 [Example 323, 3-(3-fluoro-5-(3-(piperidine-1-carbonyl)pyrazolo[1,5-a]pyridin-7-yl)pyridin-2-yl)oxazolidin-2-one] showed an IC50 (human 15-PGDH) of at most 100 nM and a fold induction at 1 µM (A549 cells) of over 1.5.
COc1ccc(-c2cccc3c(C(=O)N4CCCCC4)cnn23)cc1C(F)(F)F [Example 20, (7-(4-methoxy-3-(trifluoromethyl)phenyl)pyrazolo[1,5-a]pyridin-3-yl)(piperidin-1-yl)methanone] was tested, and the IC50 (human 15-PGDH) was at most 100 nM and the fold induction at 1 µM (A549 cells) was over 1.5.
In the case of O=C1CC(C(=O)Nc2ccc(-c3cccc4c(C(=O)N5CCCCC5)cnn34)cn2)CCN1 (centres unmarked) [Example 105, 2-oxo-N-(5-(3-(piperidine-1-carbonyl)pyrazolo[1,5-a]pyridin-7-yl)pyridin-2-yl)piperidine-4-carboxamide], the IC50 (human 15-PGDH) is reported as at most 100 nM and the “Increased PGE2 production in A549 cells” value (A549 cells) is reported as “++ (key: +: 0 < PGE2 increasing ability < 1.5; ++: PGE2 increasing ability ≥ 1.5)”.
Cn1cnc2ccc(-c3cccc4c(C(=O)N5CCCCC5)cnn34)cc2c1=O [Example 245, 3-methyl-6-(3-(piperidine-1-carbonyl)pyrazolo[1,5-a]pyridin-7-yl)quinazolin-4(3H)-one] showed an IC50 (human 15-PGDH) of at most 100 nM and a fold induction at 1 µM (A549 cells) of over 1.5.
In the case of O=C(c1cnn2c(-c3ccc(F)nc3)cccc12)N1CCCCC1 [Example 19, (7-(6-fluoropyridin-3-yl)pyrazolo[1,5-a]pyridin-3-yl)(piperidin-1-yl)methanone], the IC50 (human 15-PGDH) is reported as at most 100 nM and the fold induction at 1 µM (A549 cells) is reported as over 1.5.
For O=C(c1cnn2c(-c3ccc(Br)cc3)cccc12)N1CCCCC1 [Example 292, (7-(4-bromophenyl)pyrazolo[1,5-a]pyridin-3-yl)(piperidin-1-yl)methanone], the IC50 (human 15-PGDH) was at most 100 nM and the fold induction at 1 µM (A549 cells) was over 1.5.
CN(C)CC(=O)Nc1ccc(-c2cccc3c(C(=O)N4CCCCC4)cnn23)cn1 [Example 104, 2-(dimethylamino)-N-(5-(3-(piperidine-1-carbonyl)pyrazolo[1,5-a]pyridin-7-yl)pyridin-2-yl)acetamide] showed an IC50 (human 15-PGDH) of at most 100 nM and a fold induction at 1 µM (A549 cells) of over 1.5.
In the case of CCC1CCCN(C(=O)c2cnn3c(-c4ccc(N5CCOC5=O)nc4)cccc23)C1 (centres unmarked) [Example 354, 3-(5-(3-(3-ethylpiperidine-1-carbonyl)pyrazolo[1,5-a]pyridin-7-yl)pyridin-2-yl)oxazolidin-2-one], the IC50 (human 15-PGDH) is reported as at most 100 nM and the fold induction at 1 µM (A549 cells) is reported as over 1.5.
Work on O=C(Cc1cccnc1)Nc1ncc(-c2cccc3c(C(=O)N4CCCCC4)cnn23)cc1F [Example 362, N-(3-fluoro-5-(3-(piperidine-1-carbonyl)pyrazolo[1,5-a]pyridin-7-yl)pyridin-2-yl)-2-(pyridin-3-yl)acetamide] yielded an IC50 (human 15-PGDH) of at most 100 nM and a fold induction at 1 µM (A549 cells) of over 1.5.
O=C(O)c1ccc(-c2cccc3c(C(=O)N4CCCCC4)cnn23)cc1 [Example 10, 4-(3-(piperidine-1-carbonyl)pyrazolo[1,5-a]pyridin-7-yl)benzoic acid] was tested, and the IC50 (human 15-PGDH) was at most 100 nM and the fold induction at 1 µM (A549 cells) was under 1.5.
Work on O=C1NCCc2cc(-c3cccc4c(C(=O)N5CCCCC5)cnn34)ccc21 [Example 136, 6-(3-(piperidine-1-carbonyl)pyrazolo[1,5-a]pyridin-7-yl)-3,4-dihydroisoquinolin-1(2H)-one] yielded an IC50 (human 15-PGDH) of at most 100 nM and a fold induction at 1 µM (A549 cells) of over 1.5.
Work on O=C(NCc1ccon1)c1cncc(-c2cccc3c(C(=O)N4CCCCC4)cnn23)c1 [Example 55, N-(isoxazol-3-ylmethyl)-5-(3-(piperidine-1-carbonyl)pyrazolo[1,5-a]pyridin-7-yl)nicotinamide] yielded an IC50 (human 15-PGDH) of at most 100 nM and a fold induction at 1 µM (A549 cells) of over 1.5.
With O=C(c1cnn2c(-c3cnc(F)c(Cl)c3)cccc12)N1CCCCC1 [Example 289, (7-(5-chloro-6-fluoropyridin-3-yl)pyrazolo[1,5-a]pyridin-3-yl)(piperidin-1-yl)methanone] the IC50 (human 15-PGDH) was at most 100 nM and the fold induction at 1 µM (A549 cells) was over 1.5.
For O=C(c1cnn2c(-c3cc(F)nc(F)c3)cccc12)N1CCCCC1 [Example 273, (7-(2,6-difluoropyridin-4-yl)pyrazolo[1,5-a]pyridin-3-yl)(piperidin-1-yl)methanone], the IC50 (human 15-PGDH) was at most 100 nM and the fold induction at 1 µM (A549 cells) was over 1.5.
In the case of O=C1NCc2ccc(-c3cccc4c(C(=O)N5CC6(CC(F)C6)C5)cnn34)cc21 [Example 411, 6-(3-(6-fluoro-2-azaspiro[3.3]heptane-2-carbonyl)pyrazolo[1,5-a]pyridin-7-yl)isoindolin-1-one], the IC50 (human 15-PGDH) is reported as at most 100 nM and the fold induction at 1 µM (A549 cells) is reported as over 1.5.
Molecule N#Cc1cc(-c2cccc3c(C(=O)N4CCCCC4)cnn23)ccc1F [Example 254, 2-fluoro-5-[3-(piperidine-1-carbonyl)pyrazolo[1,5-a]pyridin-7-yl]benzonitrile] has an IC50 (human 15-PGDH) of at most 100 nM and a fold induction at 1 µM (A549 cells) of over 1.5.
Work on O=C(c1cnn2c(-c3cccc(C=NO)c3)cccc12)N1CCCCC1 [Example 253, 3-(3-(piperidine-1-carbonyl)pyrazolo[1,5-a]pyridin-7-yl)benzaldehyde oxime] yielded an IC50 (human 15-PGDH) of at most 100 nM and a fold induction at 1 µM (A549 cells) of over 1.5.
Work on O=C(c1cnn2c(-c3cc(-c4cncc(F)c4)nc(N4CCOC4=O)c3)cccc12)N1CCCCC1 [Example 370, 3-(5'-fluoro-4-(3-(piperidine-1-carbonyl)pyrazolo[1,5-a]pyridin-7-yl)-[2,3'-bipyridin]-6-yl)oxazolidin-2-one] yielded an IC50 (human 15-PGDH) of at most 100 nM and a fold induction at 1 µM (A549 cells) of over 1.5.
O=C1NCc2ccc(-c3cccc4c(C(=O)N5CC=CCC5)cnn34)cc21 [Example 401, 6-(3-(1,2,3,6-tetrahydropyridine-1-carbonyl)pyrazolo[1,5-a]pyridin-7-yl)isoindolin-1-one] showed an IC50 (human 15-PGDH) of at most 100 nM and a fold induction at 1 µM (A549 cells) of over 1.5.
In the case of O=C(c1cnn2c(-c3ccnc(-c4cnn(Cc5ncon5)c4)c3)cccc12)N1CCCCC1 [Example 397, (7-(2-(1-((1,2,4-oxadiazol-3-yl)methyl)-1H-pyrazol-4-yl)pyridin-4-yl)pyrazolo[1,5-a]pyridin-3-yl)(piperidin-1-yl)methanone], the IC50 (human 15-PGDH) is reported as at most 100 nM and the fold induction at 1 µM (A549 cells) is reported as over 1.5.
O=C(c1cnn2c(-c3ccc(NCCc4cccnc4)nc3)cccc12)N1CCCCC1 [Example 332, piperidin-1-yl(7-(6-((2-(pyridin-3-yl)ethyl)amino)pyridin-3-yl)pyrazolo[1,5-a]pyridin-3-yl)methanone] gave an IC50 (human 15-PGDH) of at most 100 nM and a fold induction at 1 µM (A549 cells) of over 1.5.
O=C(Nc1cncc(-c2cccc3c(C(=O)N4CCCCC4)cnn23)c1)c1cccnc1 [Example 326, N-(5-(3-(piperidine-1-carbonyl)pyrazolo[1,5-a]pyridin-7-yl)pyridin-3-yl)nicotinamide] showed an IC50 (human 15-PGDH) of at most 100 nM and a fold induction at 1 µM (A549 cells) of over 1.5.
With O=C1NCc2ccc(-c3cccc4c(C(=O)N5CC6(C5)CC(F)(F)C6)cnn34)cc21 [Example 412, 6-(3-(6,6-difluoro-2-azaspiro[3.3]heptane-2-carbonyl)pyrazolo[1,5-a]pyridin-7-yl)isoindolin-1-one] the IC50 (human 15-PGDH) was at most 100 nM and the fold induction at 1 µM (A549 cells) was over 1.5.
Work on O=C(c1cnn2c(-c3cc(F)ncc3Cl)cccc12)N1CCCCC1 [Example 298, (7-(5-chloro-2-fluoropyridin-4-yl)pyrazolo[1,5-a]pyridin-3-yl)(piperidin-1-yl)methanone] yielded an IC50 (human 15-PGDH) of at most 100 nM and a fold induction at 1 µM (A549 cells) of over 1.5.
